Measurements taken from patent US9115072B2, “Compounds and method for reducing uric acid” (WELLSTAT THERAPEUTICS CORPORATION, priority 2008, dated 2015).

Key:
[1] = test system: mice treated with the uricase inhibitor potassium oxonate; assay: Uric acid excretion in urine of mice treated with the uricase inhibitor potassium oxonate; type: in vivo, mouse; details: for Urine Uric Acid: urine collected between 3 and 5 hours after drug; for Effect on uric acid in urine versus the Oxonate control group (in words): urine collected between 3 and 5 hours after drug administration
Description: The model to induce hyperuricemia involves the use of the uricase (urate oxidase) inhibitor potassium oxonate that causes a delay in the degradation of uric acid to allantoin. Humans have little or no uricase activity, so inhibition of this enzyme with potassium oxonate makes mouse uric acid processing more similar to that of humans. Male 11-week old C57/B16 mice (Harlan, Frederick, Md.) were used in the studies (8 per experimental group). Mice were receiving standard rodent chow that was removed one hour before administration of potassium oxonate. Mice were given an intraperitoneal injection (i.p.) of potassium oxonate (300 mg/kg) that was suspended in 0.5% hydroxypropylmethylcellulose (HPMC). […] Urine collection was performed at 1, 3 and 5 hours after drug treatments and uric acid was measured with a colorimetric assay (BioVision Research Products, Mountain View, Calif.).

[2] = molecular target: T1, human URAT1 (Homo sapiens, UniProt Q96S37); assay: URAT1 inhibition assay, [8-14C] urate uptake in hURAT1-HEK cells; type: cell-based; details: 50 μM [8-14C] urate; for inhibition at 10 µM: drug concentration typically 10 micromolar, read-out: % of Inhibition (uric acid uptake)
T1 construct: The full-length hURAT1 cDNA was obtained from the vector pCMV6-XL5 and subcloned into the expression vector pCMV6-Neo
T1 sequence (Q96S37 1-553): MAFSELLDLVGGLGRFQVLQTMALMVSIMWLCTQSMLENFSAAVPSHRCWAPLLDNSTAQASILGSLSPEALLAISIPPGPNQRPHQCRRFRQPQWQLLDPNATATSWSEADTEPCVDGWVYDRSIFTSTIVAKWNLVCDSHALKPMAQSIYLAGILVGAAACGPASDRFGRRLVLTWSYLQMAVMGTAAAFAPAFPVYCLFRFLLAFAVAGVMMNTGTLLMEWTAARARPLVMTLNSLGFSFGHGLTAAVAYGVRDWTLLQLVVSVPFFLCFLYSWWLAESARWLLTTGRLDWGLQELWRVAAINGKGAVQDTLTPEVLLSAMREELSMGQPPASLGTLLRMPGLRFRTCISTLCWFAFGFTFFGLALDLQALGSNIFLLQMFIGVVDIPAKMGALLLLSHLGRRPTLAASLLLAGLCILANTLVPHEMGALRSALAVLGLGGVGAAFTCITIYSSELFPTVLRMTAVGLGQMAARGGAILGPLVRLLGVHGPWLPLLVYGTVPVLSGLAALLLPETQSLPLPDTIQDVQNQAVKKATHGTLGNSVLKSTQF
Protocol: A suitable assay involves transfection of cells (e.g. human embryonic kidney cells; “HEK”) with a vector encoding human URAT1, followed by determination of the ability of transfected cells to take up radiolabeled uric acid. The activity of compounds as URAT1 inhibitors is evaluated by their ability to block uric acid uptake by transfected cells.
Urate (50-60 mCi/mmol; American Radio Chemicals, Cat. No. ARC0513).
Plasmid vector pCMV6-XL5 containing hURAT1 cDNA (Cat. No. SC125624) and the expression vector pCMV6-Neo (Cat. No. pCMVNEO) were obtained from OriGene Technologies, Inc. The full-length hURAT1 cDNA was obtained from the vector pCMV6-XL5 and subcloned into the expression vector pCMV6-Neo to create the hURAT1 expression plasmid pCMV6-hURAT1. The sequences were verified by automatic DNA sequencing.
For transfection experiments, cells were plated on 60 mm dishes in 1 ml media per dish. […] Stable transfectants expressing hURAT1 (herein after referred as hURAT1-HEK cells) or cells having only the expression vector pCMV6-Neo (herein after referred as mock-HEK cells) were verified using reverse transcription polymerase chain reaction (RT-PCR) methods.
Before the uptake assay started, the culture medium was removed and the cells were incubated for 5 min in 0.6 ml of HBSS. After that HBSS was removed, the prepared reaction solutions were added into each well and incubated for 5 min at room temperature. Then the reaction solution was removed, cells were washed twice with 0.6 ml of cold HBSS and lysed with 0.2 ml of 0.1 M NaOH for 20 min. […] Test compounds were dissolved in DMSO and the same concentration of DMSO was added into the wells of mock-HEK cells and the hURAT1-HEK cells that didn't contain test compounds. For each test compound, the uptake assay was performed 2 times and carried out in triplicate. Urate uptake of the cells for each test condition was presented as the average percent inhibition in comparison to the DMSO control. The radioactivity values obtained for the wells that contained DMSO were taken as 100% uptake of the cells. The observed concentration-percent inhibition data were fitted to a sigmoidal concentration-effect model, where: IC50^Slope=[(100*Conc^Slope)/% Inhibition]−Conc^Slope
Additional drug concentrations were tested for determination of IC-50 values for some compounds (Table 6).

Q: How did the “Urine Uric Acid” value ([1]; 30 mg/kg p.o. after oxonate 300 mg/kg i.p.) turn out when `CCc1oc2ccccc2c1C(=O)c1cc(Br)c(O)c(Br)c1` [Benzbromarone] was run?
A: The value was 185 mg/dL.

Q: What about the “Urine Uric Acid” value ([1]; 100 mg/kg p.o. after oxonate 300 mg/kg i.p.) of the same compound?
A: Its value is 173 mg/dL.

Q: And the “Effect on uric acid in urine versus the Oxonate control group (in words)” value [1]?
A: The value was “induced an increase in uric acid concentration in urine, though to lesser degree than Compound BI”.

Q: For `Cc1cccc(F)c1COc1cccc(C(=O)CCC(=O)O)c1` [BJ, 4-(3-(2-Fluoro-6-methylbenzyloxy)phenyl)-4-oxobutanoic acid], which inhibition at 10 µM [2] is on record?
A: The inhibition at 10 µM was 81.8%.

Q: For `O=C(O)Cc1cccc(OCc2ccccc2)c1` [DZ, 2-(3-(Benzyloxy)phenyl)acetic acid], which inhibition at 10 µM [2] is on record?
A: Its inhibition at 10 µM is 26.9%.

Q: Which inhibition at 10 µM [2] does the source give for `Cc1cccc(C)c1COc1cccc(C(=O)CCCC(=O)O)c1` [CD, 5-(3-(2,6-Dimethylbenzyloxy)phenyl)-5-oxopentanoic acid] here?
A: The inhibition at 10 µM was 63.5%.

Q: Which IC50 [2] does the source give for `Cc1cccc(C)c1COc1cccc(CCC(=O)O)c1` [CM, 3-(3-(2,6-Dimethylbenzyloxy)phenyl)propanoic acid] here?
A: The IC50 was 1010 nM.

Q: And the inhibition at 10 µM [2]?
A: The inhibition at 10 µM was 89%.

Q: `Cc1cccc(C)c1COc1ccc(C(=O)CCC(=O)O)cc1` [BM, 4-(4-(2,6-Dimethylbenzyloxy)phenyl)-4-oxobutanoic acid] was tested. Which inhibition at 10 µM [2] did it give?
A: The inhibition at 10 µM was 22.2%.

Q: Which inhibition at 10 µM [2] does the source give for `O=C(O)CCC(=O)c1cccc(OCC2CC2)c1` [BH, 4-(3-(Cyclopropylmethoxy)phenyl)-4-oxobutanoic acid] here?
A: Its inhibition at 10 µM is 62.4%.

Q: How did the inhibition at 10 µM [2] turn out when `O=C(O)CCC(=O)c1cccc(OCc2c(Cl)cccc2Cl)c1` [DS, 4-(3-(2,6-Dichlorobenzyloxy)phenyl)-4-oxobutanoic acid] was run?
A: The inhibition at 10 µM was 75%.

Q: `Cc1cccc(C)c1COc1cccc(C2(C(=O)O)CC2)c1` [EF, 1-(3-(2,6-Dimethylbenzyloxy)phenyl)cyclopropanecarboxylic acid] was tested. Which IC50 [2] did it give?
A: Its IC50 is 590 nM.

Q: And the inhibition at 10 µM [2]?
A: Its inhibition at 10 µM is 90.3%.

Q: `Cc1cccc(C)c1COc1cc(CC(=O)O)ccc1F` [EI, 2-(3-(2,6-Dimethylbenzyloxy)-4-fluorophenyl)acetic acid] was tested. Which inhibition at 10 µM [2] did it give?
A: The inhibition at 10 µM was 93%.

Q: Which inhibition at 10 µM [2] does the source give for `Cc1cccc(C)c1COc1ccccc1CC(=O)O` [EA, 2-(2-(2,6-Dimethylbenzyloxy)phenyl)acetic acid] here?
A: Its inhibition at 10 µM is 49%.

Q: With `Cc1cccc(C)c1COc1cccc(C(C)(C)C(=O)O)c1` [EE, 2-(3-(2,6-Dimethylbenzyloxy)phenyl)-2-methylpropanoic acid] as the compound, how does the inhibition at 10 µM [2] read?
A: Its inhibition at 10 µM is 90.1%.

Q: Which inhibition at 10 µM [2] does the source give for `O=C(O)Cc1cccc(OCc2ccc(C(F)(F)F)cc2C(F)(F)F)c1` [DN, 2-(3-(2,4-bis(trifluoromethyl)benzyloxy)phenyl)acetic acid] here?
A: Its inhibition at 10 µM is 45.4%.

Q: `O=C(O)CCC(=O)c1ccc(OCc2ccccn2)cc1` [AF, 4-oxo-4-(4-(pyridin-2-ylmethoxy)phenyl)butanoic acid] was tested. Which inhibition at 10 µM [2] did it give?
A: The inhibition at 10 µM was 41.3%.

Q: `Cc1ccc(C)c(COc2ccc(C(=O)CCC(=O)O)cc2)c1` [AT, 4-(4-(2,5-Dimethylbenzyloxy)phenyl)-4-oxobutanoic acid] was tested. Which inhibition at 10 µM [2] did it give?
A: Its inhibition at 10 µM is 7.95%.

Q: Which results are given for `CCC(C(=O)O)c1cccc(OCc2c(C)cccc2C)c1` (centres unmarked) [DV, 2-(3-(2,6-Dimethylbenzyloxy)phenyl)butanoic acid]?
A: IC50 [2]: 890 nM; inhibition at 10 µM [2]: 79.5%

Q: For `O=C(O)CCC(=O)c1ccc(OCc2ccccc2C(F)(F)F)cc1` [AY, 4-(4-(2-Trifluoromethylbenzyloxy)phenyl)-4-oxobutanoic acid], which inhibition at 10 µM [2] is on record?
A: The inhibition at 10 µM was 8.9%.

Q: `O=C(O)CCC(=O)c1ccc(OCc2ccccc2)cc1` [AG, 4-(4-(Benzyloxy)phenyl)-4-oxobutanoic acid] was tested. Which inhibition at 10 µM [2] did it give?
A: The inhibition at 10 µM was 5.99%.

Q: For `Cc1ccccc1COc1cccc(C(=O)CCC(=O)O)c1` [AN, 4-(3-(2-Methylbenzyloxy)phenyl)-4-oxobutanoic acid], which inhibition at 10 µM [2] is on record?
A: The inhibition at 10 µM was 54.4%.

Q: Which inhibition at 10 µM [2] does the source give for `O=C(O)Cc1cccc(OCc2ccc(C(F)(F)F)cc2)c1` [DU] here?
A: The inhibition at 10 µM was 30.5%.

Q: `Oc1ncnc2[nH]ncc12` [Allopurinol] was tested. Which “Urine Uric Acid” value ([1]; 20 mg/kg p.o. after oxonate 300 mg/kg i.p.) did it give?
A: Its value is 79 mg/dL.

Q: What about the “Effect on uric acid in urine versus the Oxonate control group (in words)” value [1] of the same compound?
A: Its value is “reduced the concentration of uric acid in urine”.

Q: Which results are given for `Cc1cccc(C)c1COc1cccc(C(=O)C(=O)O)c1` [CQ, 2-(3-(2,6-Dimethylbenzyloxy)phenyl)-2-oxoacetic acid]?
A: IC50 [2]: 1330 nM; inhibition at 10 µM [2]: 84.8%
